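Five concentrations, 48 hours, 96-well plates. Here, GI50 denotes the concentration required for 50% inhibition of growth. Definition used: TGI = concentration required for complete inhibition of growth.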
Legend:
Test in all cases: NCI anticancer screen, dose series, 48 h
[1] = test system: SF-268 CNS
[2] = test system: HCT-116 colon
[3] = test system: OVCAR-3 ovarian
[4] = test system: HCT-15 colon
[5] = test system: HS 578T breast
[6] = test system: PC-3 prostate
[7] = test system: HOP-62 NSCLC
[8] = test system: UO-31 renal
[9] = test system: NCI-H460 lung
[10] = test system: NCI-H522 lung

SMILES	TGI [1]	TGI [2]	TGI [3]	TGI [4]	TGI [5]	TGI [6]	TGI [7]	TGI [8]	TGI [9]	TGI [10]	GI50 [1]	GI50 [2]	GI50 [3]	GI50 [4]	GI50 [5]	GI50 [6]	GI50 [7]	GI50 [8]	GI50 [9]	GI50 [10]
Cc1[nH]c(=O)[nH]c(=O)c1C(=O)N(CCO)Cc1ccccc1	> 100 µM	> 100 µM	> 100 µM	> 100 µM	41.9 µM	94.8 µM	> 100 µM	> 100 µM	> 100 µM	> 100 µM	–	–	–	–	–	–	–	–	–	–
CC(C)C[C@H](NC(=O)[C@H](CCc1ccccc1)NC(=O)c1ccc2ccccc2n1)B(O)O	0.397 µM	0.0595 µM	0.0818 µM	0.52 µM	0.442 µM	1.19 µM	0.658 µM	0.588 µM	2.47 µM	< 0.0405 µM	–	–	–	–	–	–	–	–	–	–
Cc1nc2ccccc2cc1C[N+]12CN3CN(CN(C3)C1)C2	51 µM	33.2 µM	86.2 µM	47 µM	> 100 µM	34.3 µM	69.9 µM	57.4 µM	45.1 µM	38.2 µM	–	–	–	–	–	–	–	–	–	–
OC1(c2ccc(Cl)cc2)c2ccccc2C2=NCc3ccccc3CN21 (stereo not given)	25.3 µM	19.2 µM	6.33 µM	20 µM	32.5 µM	15.2 µM	21.9 µM	22.3 µM	23.7 µM	27.7 µM	–	–	–	–	–	–	–	–	–	–
CN(C)/C=N/S(=O)(=O)c1nn2c(C=O)c(-c3cc4ccccc4oc3=O)nc2s1	> 44.9 µM	5.89 µM	17.3 µM	27.6 µM	> 27 µM	> 48.5 µM	> 59.2 µM	4.84 µM	> 88.1 µM	3.09 µM	–	–	–	–	–	–	–	–	–	–
Cc1nc2sccn2c1C(=O)OCCOCCOCCOCCOC(=O)c1c(C)nc2sccn12	> 100 µM	> 100 µM	> 100 µM	> 100 µM	> 100 µM	> 100 µM	> 100 µM	> 100 µM	> 100 µM	> 100 µM	–	–	–	–	–	–	–	–	–	–
O=[N+]([O-])c1ccc(-[n+]2ccc3ccccc3c2)c([N+](=O)[O-])c1	11.9 µM	5.95 µM	6.2 µM	3.65 µM	49.6 µM	13.1 µM	20 µM	9.28 µM	30.1 µM	3.74 µM	–	–	–	–	–	–	–	–	–	–
C/C(NC(=O)c1ccccc1)=C(/C(=O)c1ccccc1)[C@@H]1OC(C)(C)O[C@@H]1[C@H]1COC(C)(C)O1	> 100 µM	52.5 µM	> 100 µM	> 100 µM	> 100 µM	> 100 µM	> 100 µM	30.1 µM	65.5 µM	36 µM	–	–	–	–	–	–	–	–	–	–
OCCNc1nc2c(N3CCCC3)nc(N3CCNCC3)nc2nc1NCc1ccccc1	34.1 µM	21.9 µM	18.6 µM	32.2 µM	51.4 µM	30.7 µM	18.1 µM	28.7 µM	29.9 µM	30.7 µM	–	–	–	–	–	–	–	–	–	–
CN1CCN(c2c(O)c3c(c(O)c2Cl)C(=O)C=CC3=O)CC1	3.72 µM	0.51 µM	1.47 µM	0.491 µM	5.45 µM	3.27 µM	3.36 µM	1.22 µM	3.77 µM	0.765 µM	–	–	–	–	–	–	–	–	–	–
CC(C)(C)OC(=O)NCCNC(=O)CN(CC(=O)O)C1CCCCC1N(CC(=O)O)CC(=O)O (stereo not given)	> 100 µM	> 100 µM	> 100 µM	> 100 µM	> 100 µM	> 100 µM	> 100 µM	> 100 µM	> 100 µM	> 100 µM	–	–	–	–	–	–	–	–	–	–
COC1=C(OC)C(=O)C(Cc2c(Cl)nc3n2CCS3)=C(C)C1=O	41.3 µM	25.3 µM	37.2 µM	39.8 µM	66.1 µM	64.2 µM	29.1 µM	28.3 µM	30.8 µM	25.4 µM	–	–	–	–	–	–	–	–	–	–
Nc1ccc(-c2nc3cc(F)ccc3s2)cc1	> 100 µM	> 100 µM	> 100 µM	> 85.7 µM	> 100 µM	45.8 µM	39.2 µM	> 100 µM	> 100 µM	> 100 µM	–	–	–	–	–	–	–	–	–	–
Clc1ccc(-c2nn3c(C45CC6CC(CC(C6)C4)C5)nnc3s2)cc1	> 100 µM	> 100 µM	> 100 µM	> 100 µM	> 100 µM	> 100 µM	> 100 µM	> 100 µM	> 100 µM	> 100 µM	–	–	–	–	–	–	–	–	–	–
Cc1csc2n(C)c(=O)c3ccccc3[n+]12	> 100 µM	> 100 µM	> 100 µM	> 100 µM	> 100 µM	> 100 µM	> 100 µM	> 100 µM	> 100 µM	> 100 µM	–	–	–	–	–	–	–	–	–	–
CCOC(=O)c1ccc(NC(NC(=O)CC)(C(F)(F)F)C(F)(F)F)cc1	> 100 µM	> 100 µM	> 100 µM	> 100 µM	> 100 µM	> 100 µM	> 100 µM	> 100 µM	> 100 µM	> 100 µM	–	–	–	–	–	–	–	–	–	–
Cc1ccc(NC(=O)CC(=O)N2N=C(c3ccccc3)C(N=Nc3ccc(S(=O)(=O)CCOS(=O)(=O)O)cc3)C2=O)cc1 (stereo not given)	> 100 µM	> 100 µM	> 100 µM	> 100 µM	> 100 µM	> 100 µM	> 100 µM	> 100 µM	> 100 µM	> 100 µM	–	–	–	–	–	–	–	–	–	–
O=c1c(S(=O)(=O)Oc2ccccc2)coc2cc(F)ccc12	> 100 µM	> 100 µM	> 100 µM	> 100 µM	> 100 µM	> 100 µM	> 100 µM	> 100 µM	> 100 µM	> 100 µM	–	–	–	–	–	–	–	–	–	–
COc1cc(C2c3cc4c(cc3OC(N3CCOCC3)C2C)OCO4)cc(OC)c1OC(C)=O (stereo not given)	> 100 µM	60.8 µM	59.4 µM	> 100 µM	25.7 µM	> 100 µM	> 95.5 µM	> 100 µM	> 100 µM	33.2 µM	–	–	–	–	–	–	–	–	–	–
O=[N+]([O-])c1ccc(Cl)cc1N/N=C/c1cccs1	> 100 µM	> 100 µM	> 100 µM	> 100 µM	> 100 µM	> 100 µM	> 100 µM	> 100 µM	> 100 µM	> 100 µM	–	–	–	–	–	–	–	–	–	–
COC1CCC(n2c([C@@H]3CCCC(=O)N3c3ccc(F)c(F)c3)nc3cc(-c4c(C)noc4C)ccc32)CC1 (stereo not given in full)	56.4 µM	22.4 µM	32.3 µM	38.3 µM	9.86 µM	44.1 µM	> 100 µM	14.5 µM	> 100 µM	19.8 µM	14.6 µM	10 µM	10.5 µM	4.73 µM	2.1 µM	3.5 µM	4.46 µM	1.64 µM	26.3 µM	2.93 µM
O=C(O)C(CO)NC(=O)C1C(C(=O)O)C(c2ccccc2[N+](=O)[O-])C=C(c2ccco2)N1c1ccncc1 (stereo not given)	30.5 µM	3.08 µM	17.1 µM	4.39 µM	57.5 µM	22.1 µM	25.2 µM	10.4 µM	18.5 µM	19 µM	–	–	–	–	–	–	–	–	–	–
O=C1C(CN2CCCC2)CCCC1CN1CCCC1 (stereo not given)	52.3 µM	3.28 µM	9.62 µM	4.54 µM	72.6 µM	32.3 µM	> 71.1 µM	2.31 µM	43.5 µM	0.29 µM	–	–	–	–	–	–	–	–	–	–
Cc1ccc(CC(=O)Nc2ccc(NC(=O)CNC(=O)/C=C/c3ccc(-c4ccccc4)cc3)cc2C(=O)c2ccccc2)cc1	7.51 µM	2.65 µM	19.1 µM	13.2 µM	21.1 µM	4.07 µM	6.95 µM	24.7 µM	11.1 µM	18.4 µM	–	–	–	–	–	–	–	–	–	–
Cc1ccnc2sc3ccccc3c(=O)c12	> 100 µM	> 100 µM	> 100 µM	> 100 µM	77.6 µM	> 100 µM	> 100 µM	81.8 µM	> 100 µM	99.2 µM	–	–	–	–	–	–	–	–	–	–
O=C(CC(=O)Nc1ccccc1Cl)NNC(Sc1ccccc1)c1cc(N=Nc2ccc(Br)cc2)ccc1O (stereo not given)	> 10 µM	1.31 µM	2.91 µM	> 10 µM	7.18 µM	6.21 µM	8.67 µM	3.96 µM	2.86 µM	> 10 µM	–	–	–	–	–	–	–	–	–	–
Cc1nc(N)nc(N)c1N1CCN(Cc2ccccc2)CC1	> 100 µM	> 100 µM	> 100 µM	> 100 µM	> 100 µM	> 100 µM	> 100 µM	> 100 µM	> 100 µM	> 93.5 µM	–	–	–	–	–	–	–	–	–	–
CSc1nc(=O)c(C#N)c(-c2ccccc2)n1C1OC(COC(C)=O)C(OC(C)=O)C(OC(C)=O)C1OC(C)=O (stereo not given)	> 100 µM	> 100 µM	> 100 µM	> 100 µM	> 100 µM	> 100 µM	> 100 µM	> 100 µM	> 100 µM	> 100 µM	–	–	–	–	–	–	–	–	–	–
CCOC(=O)/C=C(/C(=O)OCC)n1ccc(=O)[nH]c1=O	39.6 µM	7.14 µM	12.8 µM	9.39 µM	37.9 µM	26.8 µM	35.7 µM	27.8 µM	30.5 µM	2.72 µM	–	–	–	–	–	–	–	–	–	–
O=C(CCC(=O)OCC1OC(O)(CC2OC(CO)C(O)C(O)C2O)C(O)C1O)OCc1ccccc1 (stereo not given)	> 100 µM	> 100 µM	> 100 µM	> 100 µM	> 100 µM	> 100 µM	> 100 µM	> 100 µM	> 100 µM	> 100 µM	–	–	–	–	–	–	–	–	–	–
